Test results reported in patent publication US20150344540A1, “NOVEL GLP-1 RECEPTOR AGONISTS WITH CHOLESTEROL EFFLUX ACTIVITY” (NOVO NORDISK A/S, priority 2012, published 2015).
Like-named read-outs stand apart in the source and are kept apart here. Where a SMILES comes first, the peptide text is derived from it. Where no end group is shown, it is not given here. [ ]: non-standard residue; d: D form. Aib = CC(C)(N)C(=O)O

Assays:
human GLP-1 receptor = human GLP-1 receptor (Homo sapiens, UniProt P43220); test: Functional GLP-1 receptor assay, in vitro potency (CRE luciferase; whole cells); format: cell-based; details: BHK cells expressing human GLP-1 receptor
[1] = Pharmacokinetics in mini-pigs after i.v. administration; details: female, Göttingen, minipig, iv, 5 nmol/kg
Source text: The aim of the study is to assess the pharmacokinetic properties of the compounds of the invention, in mini-pigs.
Göttingen mini-pigs female, 15-20 kg, purchased from Ellegaard Mini-pigs, Denmark, were housed in the Animal Unit, Novo Nordisk A/S and were kept and handled according to normal procedure in the Animal Unit. After minimum 2 weeks of acclimatization two permanent central venous catheters were implemented in vena cava caudalis in each animal. After surgery the animals were in their normal individual pens during the pharmacokinetic experiments.
Intravenous injections were given through the central short catheter, which was flushed with min 10 ml of sterile saline post administration. The test substance was dosed at 5 nmol/kg, N=3, in a volume of 0.05 ml/kg.
On day 1 the catheters are coupled to extension tubes, which will be removed at the end of day 1.
Samples were kept on wet ice until centrifugation (10 min, 4° C., 1942 g). Afterwards, plasma (min. 100 μl) was transferred immediately to Micronic tubes and kept at −20° C. until analysis. The plasma samples were analysed by an immunoaasay described below.
The plasma concentrations of the peptides with intact N-terminus were determined using a Luminescence Oxygen Chanelling Immuno-assay (LOCI). The donor beads were coated with streptavidin, while acceptor beads were conjugated with a monoclonal antibody recognizing a mid-/C-terminal epitope of the peptide. The other monoclonal antibody, specific for the N-terminus, was biotinylated. The three reactants were combined with the analyte and formed a two-sited immuno-complex. Illumination of the complex released singlet oxygen atoms from the donor beads, which were channeled into the acceptor beads and triggered chemi-luminescence which was measured in an Envision plate reader. The amount of light was proportional to the concentration of the compound.
Plasma concentration-time profiles was analysed by a non-compartmental pharmacokinetics analysis using Phoenix (Pharsight Inc., Mountain View, Calif., USA). Calculations were performed using individual concentration-time values from each animal.

[2] = system: Mouse monocyte/macrophage cell line, RAW 264.7; test: Cholesterol efflux assay (3H-cholesterol, macrophage cell line); format: cell-based; details: RAW 264.7, 4 hrs incubation, 0.1% human serum albumin, ABCA1-mediated efflux
[3] = 0% HSA, read-out: GLP1R CRE luc 0% HSA EC50 Mean Value
[4] = GLP1R CRE luc 1% HSA EC50 Mean Value, 1% HSA
[5] = plasma, T1/2 Mean Value, Göttingen mini-pigs, N=3

human GLP-1 receptor, sequence (P43220 24-463): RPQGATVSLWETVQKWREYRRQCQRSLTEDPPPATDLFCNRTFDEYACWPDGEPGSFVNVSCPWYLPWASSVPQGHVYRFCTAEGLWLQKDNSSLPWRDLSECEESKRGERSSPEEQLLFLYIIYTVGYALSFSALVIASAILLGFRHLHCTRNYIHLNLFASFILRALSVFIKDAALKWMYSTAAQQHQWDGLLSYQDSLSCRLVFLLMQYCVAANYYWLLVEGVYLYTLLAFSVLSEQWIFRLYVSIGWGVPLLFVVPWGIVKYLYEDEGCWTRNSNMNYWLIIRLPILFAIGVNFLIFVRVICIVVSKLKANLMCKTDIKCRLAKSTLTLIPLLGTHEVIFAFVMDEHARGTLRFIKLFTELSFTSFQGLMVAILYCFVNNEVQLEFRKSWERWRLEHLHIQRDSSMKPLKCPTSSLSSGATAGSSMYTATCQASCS

| EC50 (human GLP-1 receptor; [3]) [nM] | EC50 (human GLP-1 receptor; [4]) [nM] | C0 ([1]; plasma) [nM] | Vd ([1]; plasma) [L/kg] | clearance ([1]; plasma) [mL/h/kg] | half-life [1, 5] [h] | Molecule | 4 h Cholesterol Efflux Emax [2] [%] | other results |
| --- | --- | --- | --- | --- | --- | --- | --- | --- |
| 0.04 | 0.01 | 59.2 | 0.0615 | 8.04 | 5.4 | HAEGTFTSDVSSYLEGQAAKEFIAWLVEKVKEHL-NH2 [Compound 107, [Glu34,Lys35,Val36,Lys37]-GLP-1-(7-37)-peptidyl-Glu-His-Leu amide] | – | – |
| – | – | 72.1 | 0.1 | 3.31 | 20.6 | CC[C@H](C)[C@H](NC(=O)[C@H](Cc1ccccc1)NC(=O)[C@H](CCC(=O)O)NC(=O)[C@H](CCCCN)NC(=O)[C@@H](NC(=O)[C@H](C)NC(=O)[C@H](CCC(=O)O)NC(=O)CNC(=O)[C@H](CCC(=O)O)NC(=O)[C@H](CC(C)C)NC(=O)[C@H](Cc1ccc(O)cc1)NC(=O)[C@H](CO)NC(=O)[C@H](CO)NC(=O)[C@@H](NC(=O)[C@H](CC(=O)O)NC(=O)[C@H](CO)NC(=O)[C@@H](NC(=O)[C@H](Cc1ccccc1)NC(=O)[C@@H](NC(=O)CNC(=O)[C@H](CCC(=O)O)NC(=O)C(C)(C)NC(=O)[C@@H](N)Cc1c[nH]cn1)[C@@H](C)O)[C@@H](C)O)C(C)C)C(C)C)C(=O)N[C@@H](C)C(=O)N[C@@H](Cc1c[nH]c2ccccc12)C(=O)N[C@@H](CC(C)C)C(=O)N[C@H](C(=O)N[C@@H](CCC(=O)O)C(=O)N[C@@H](CCCCN)C(=O)NC(C)(C)C(=O)N[C@@H](CCCCN)C(=O)N[C@@H](CCC(=O)O)C(=O)N[C@@H](Cc1c[nH]cn1)C(=O)N[C@@H](CC(C)C)C(N)=O)C(C)C [Compound 4, [Aib8,Glu23,Val25,Glu34,Lys35,Aib36,Lys37]-GLP-1-(7-37)-peptidyl-Glu-His-Leu amide] (H-H[Aib]EGTFTSDVSSYLEGEAVKEFIAWLVEK[Aib]KEHL-NH2) | 100 | half-life ([1]; plasma, T1/2, mini-pigs): 20.6 h |
| – | – | 89.5 | 0.0904 | 1.64 | 38.7 | CC[C@H](C)[C@H](NC(=O)[C@H](Cc1ccccc1)NC(=O)[C@H](CCC(=O)O)NC(=O)[C@H](CCCCN)NC(=O)[C@@H](NC(=O)[C@H](C)NC(=O)[C@H](CCC(=O)O)NC(=O)CNC(=O)[C@H](CCC(=O)O)NC(=O)[C@H](CC(C)C)NC(=O)[C@H](Cc1ccc(O)cc1)NC(=O)[C@H](CO)NC(=O)[C@H](CO)NC(=O)[C@@H](NC(=O)[C@H](CC(=O)O)NC(=O)[C@H](CO)NC(=O)[C@@H](NC(=O)[C@H](Cc1ccccc1)NC(=O)[C@@H](NC(=O)CNC(=O)[C@H](CCC(=O)O)NC(=O)C(C)(C)NC(=O)[C@@H](N)Cc1c[nH]cn1)[C@@H](C)O)[C@@H](C)O)C(C)C)C(C)C)C(=O)N[C@@H](C)C(=O)N[C@@H](Cc1c[nH]c2ccccc12)C(=O)N[C@@H](CC(C)C)C(=O)N[C@H](C(=O)N[C@@H](CCC(=O)O)C(=O)N[C@@H](CCCCN)C(=O)N[C@H](C(=O)N[C@@H](CCCCN)C(=O)N[C@@H](CCC(=O)O)C(=O)N[C@@H](Cc1ccccc1)C(=O)N[C@@H](CC(C)C)C(N)=O)C(C)C)C(C)C [Compound 6, [Aib8,Glu23,Val25,Glu34,Lys35,Val36,Lys37]-GLP-1-(7-37)-peptidyl-Glu-Phe-Leu amide] (H-H[Aib]EGTFTSDVSSYLEGEAVKEFIAWLVEKVKEFL-NH2) | 92 | half-life ([1]; plasma, T1/2, mini-pigs): 38.7 h |
| – | – | 163 | 0.056 | 1.17 | 33 | HAEGTFTSDVSSYLEGEAVKEFIAWLVEKVKEFL-NH2 [Compound 67, [Glu23,Val25,Glu34,Lys35,Val36,Lys37]-GLP-1-(7-37)-peptidyl-Glu-Phe-Leu amide] | – | – |
| – | – | – | – | – | – | HGEGTFTSDVSSYLEGEAVKEFIAWLVEKVKEFL-NH2 [Compound 76, [Gly8,Glu23,Val25,Glu34,Lys35,Val36,Lys37]-GLP-1-(7-37)-peptidyl-Glu-Phe-Leu amide] | – | C0 ([1]; in vivo): 136 nM; Vd ([1]; in vivo): 0.0636 L/kg; clearance ([1]; in vivo): 1.06 mL/h/kg; half-life ([1]; in vivo, T1/2 Mean Value): 41.7 h |
| – | – | – | – | – | – | HGEGTFTSDVSSYLEGEAVKEFIAWLVEKVKEHL-NH2 [Compound 78, [Gly8,Glu23,Val25,Glu34,Lys35,Val36,Lys37]-GLP-1-(7-37)-peptidyl-Glu-His-Leu amide] | – | C0 ([1]; in vivo): 58.4 nM; Vd ([1]; in vivo): 0.134 L/kg; clearance ([1]; in vivo): 4.45 mL/h/kg; half-life ([1]; in vivo, T1/2 Mean Value): 20.6 h |
| – | 0.273 | – | – | – | – | CC[C@H](C)[C@H](NC(=O)[C@H](Cc1ccccc1)NC(=O)[C@H](CCC(=O)O)NC(=O)[C@H](CCCCN)NC(=O)[C@@H](NC(=O)[C@H](CCCNC(=N)N)NC(=O)[C@H](CCC(=O)O)NC(=O)CNC(=O)[C@H](CCC(=O)O)NC(=O)[C@H](CC(C)C)NC(=O)[C@H](Cc1ccc(O)cc1)NC(=O)[C@H](CO)NC(=O)[C@H](CO)NC(=O)[C@@H](NC(=O)[C@H](CC(=O)O)NC(=O)[C@H](CO)NC(=O)[C@@H](NC(=O)[C@H](Cc1ccccc1)NC(=O)[C@@H](NC(=O)CNC(=O)[C@H](CCC(=O)O)NC(=O)C(C)(C)NC(=O)[C@@H](N)Cc1c[nH]cn1)[C@@H](C)O)[C@@H](C)O)C(C)C)C(C)C)C(=O)N[C@@H](C)C(=O)N[C@@H](Cc1c[nH]c2ccccc12)C(=O)N[C@@H](CC(C)C)C(=O)N[C@H](C(=O)N[C@@H](CCC(=O)O)C(=O)N[C@@H](CCCCN)C(=O)NC(C)(C)C(=O)N[C@@H](CCCCN)C(=O)N[C@@H](CCC(=O)O)C(=O)N[C@@H](Cc1ccccc1)C(=O)N[C@@H](CC(C)C)C(N)=O)C(C)C [Compound 53, [Aib8,Glu23,Arg24,Val25,Glu34,Lys35,Aib36,Lys37]-GLP-1-(7-37)-peptidyl-Glu-Phe-Leu amide] (H-H[Aib]EGTFTSDVSSYLEGERVKEFIAWLVEK[Aib]KEFL-NH2) | 109 | – |
| – | 0.031 | – | – | – | – | H-HAEGTFTSDVSSYLEGEAVKEFIAWLVEKVKEFLEK-OH [Compound 123, [Glu23,Val25,Glu34,Lys35,Val36,Lys37]-GLP-1-(7-37)-peptidyl-Glu-Phe-Leu-Glu-Lys] | 111 | – |
| 0.043 | 0.014 | – | – | – | – | CC[C@H](C)[C@H](NC(=O)[C@H](Cc1ccccc1)NC(=O)[C@H](CCC(=O)O)NC(=O)[C@H](CCCCN)NC(=O)[C@@H](NC(=O)[C@H](C)NC(=O)[C@H](CCC(=O)O)NC(=O)CNC(=O)[C@H](CCC(=O)O)NC(=O)[C@H](CC(C)C)NC(=O)[C@H](Cc1ccc(O)cc1)NC(=O)[C@H](CO)NC(=O)[C@H](CO)NC(=O)[C@@H](NC(=O)[C@H](CC(=O)O)NC(=O)[C@H](CO)NC(=O)[C@@H](NC(=O)[C@H](Cc1ccccc1)NC(=O)[C@@H](NC(=O)CNC(=O)[C@H](CCC(=O)O)NC(=O)C(C)(C)NC(=O)[C@@H](N)Cc1c[nH]cn1)[C@@H](C)O)[C@@H](C)O)C(C)C)C(C)C)C(=O)N[C@@H](C)C(=O)N[C@@H](Cc1c[nH]c2ccccc12)C(=O)N[C@@H](CC(C)C)C(=O)N[C@H](C(=O)N[C@@H](CCC(=O)O)C(=O)N[C@@H](CCCCN)C(=O)N[C@H](C(=O)N[C@@H](CCCCN)C(=O)N[C@@H](CCC(=O)O)C(=O)N[C@@H](CCCCN)C(N)=O)C(C)C)C(C)C [Compound 110, [Aib8,Glu23,Val25,Glu34,Lys35,Val36,Lys37]-GLP-1-(7-37)-peptidyl-Glu-Lvs amide] (H-H[Aib]EGTFTSDVSSYLEGEAVKEFIAWLVEKVKEK-NH2) | 106 | – |
| 0.591 | 0.297 | – | – | – | – | CC(C)C[C@H](NC(=O)[C@H](Cc1ccccc1)NC(=O)[C@H](CCC(=O)O)NC(=O)[C@H](CCCCN)NC(=O)C(C)(C)NC(=O)[C@H](CCCCN)NC(=O)[C@H](CCC(=O)O)NC(=O)[C@H](CC(C)C)NC(=O)[C@H](CC(C)C)NC(=O)[C@H](Cc1c[nH]c2ccccc12)NC(=O)[C@H](CCC(N)=O)NC(=O)[C@@H](NC(=O)[C@H](Cc1ccccc1)NC(=O)[C@H](CCC(=O)O)NC(=O)[C@H](CCCNC(=N)N)NC(=O)[C@H](C)NC(=O)[C@H](CCCNC(=N)N)NC(=O)[C@H](CCCCN)NC(=O)CNC(=O)[C@H](CC(=O)O)NC(=O)[C@H](CC(C)C)NC(=O)[C@H](Cc1ccc(O)cc1)NC(=O)[C@H](CCCCN)NC(=O)[C@H](CO)NC(=O)[C@H](Cc1ccc(O)cc1)NC(=O)[C@H](CC(=O)O)NC(=O)[C@H](CO)NC(=O)[C@@H](NC(=O)[C@H](Cc1ccccc1)NC(=O)[C@@H](NC(=O)CNC(=O)[C@H](CCC(N)=O)NC(=O)C(C)(C)NC(=O)[C@@H](N)Cc1c[nH]cn1)[C@@H](C)O)[C@@H](C)O)C(C)C)C(N)=O [Compound 25] (H-H[Aib]QGTFTSDYSKYLDGKRAREFVQWLLEK[Aib]KEFL-NH2) | 68 | – |
| 0.039 | 0.014 | – | – | – | – | H-HAEGTFTSDVSSYLEGEAVREFIAWLVHRVREFLEK-OH [Compound 139] | 104 | – |
